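Values below derive from 48-hour exposures of cells grown in 96-well plates, with endpoints linearly interpolated between the two concentrations bracketing the appropriate inhibition level. GI50 = concentration required for 50% inhibition of growth.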 Activity calls are given as the source filed them. Cut-off read from the data, not from the text of the source: active = GI50 up to about 1.1 µM and inactive = higher.
What was measured:
Assay in all cases: DTP human tumour cell line panel, 48 h
COLO 205 = test system: COLO 205
UACC-257 = test system: UACC-257
NCI/ADR-RES = test system: NCI/ADR-RES
NCI-H23 = test system: NCI-H23
OVCAR-4 = test system: OVCAR-4
NCI-H460 = test system: NCI-H460
MDA-MB-231 = test system: MDA-MB-231
IGROV-1 = test system: IGROV-1
CCRF-CEM = test system: CCRF-CEM
HOP-62 = test system: HOP-62
NCI-H522 = test system: NCI-H522
SF-268 = test system: SF-268
ACHN = test system: ACHN
T47D = test system: T47D
OVCAR-5 = test system: OVCAR-5
Hs-578T = test system: Hs-578T
NCI-H226 = test system: NCI-H226
LOX IMVI = test system: LOX IMVI
MDA-MB-435 = test system: MDA-MB-435
SN12C = test system: SN12C
Malme-3M = test system: Malme-3M
SK-OV-3 = test system: SK-OV-3
UACC-62 = test system: UACC-62
HCT-116 = test system: HCT-116
786-0 = test system: 786-0
SF-295 = test system: SF-295
CAKI-1 = test system: CAKI-1
HCC 2998 = test system: HCC 2998
MCF7 = test system: MCF7
K562 = test system: K562
TK-10 = test system: TK-10
SNB-19 = test system: SNB-19
RXF 393 = test system: RXF 393
HL-60 = test system: HL-60
A498 = test system: A498
EKVX = test system: EKVX
RPMI-8226 = test system: RPMI-8226
OVCAR-3 = test system: OVCAR-3
DU-145 = test system: DU-145
HT-29 = test system: HT-29
SK-MEL-28 = test system: SK-MEL-28
U-251 = test system: U-251
OVCAR-8 = test system: OVCAR-8
KM12 = test system: KM12
SW-620 = test system: SW-620
UO-31 = test system: UO-31
MOLT-4 = test system: MOLT-4
HOP-92 = test system: HOP-92
SK-MEL-5 = test system: SK-MEL-5
HCT-15 = test system: HCT-15
M14 = test system: M14
A549 = test system: A549
MDA-N = test system: MDA-N
PC-3 = test system: PC-3
BT-549 = test system: BT-549
SNB-75 = test system: SNB-75
SF-539 = test system: SF-539
SK-MEL-2 = test system: SK-MEL-2

S=C(Nc1ccc2c(c1)Cc1ccccc1-2)Nc1ccc2c(c1)Cc1ccccc1-2
GI50 (COLO 205): > 100 µM (inactive) | GI50 (UACC-257): > 100 µM (inactive) | GI50 (NCI/ADR-RES): > 100 µM (inactive) | GI50 (NCI-H23): > 100 µM (inactive) | GI50 (OVCAR-4): > 100 µM (inactive) | GI50 (NCI-H460): > 100 µM (inactive) | GI50 (MDA-MB-231): > 100 µM (inactive) | GI50 (IGROV-1): > 100 µM (inactive) | GI50 (CCRF-CEM): 11.4 µM (inactive) | GI50 (HOP-62): > 100 µM (inactive) | GI50 (NCI-H522): > 100 µM (inactive) | GI50 (SF-268): > 100 µM (inactive) | GI50 (ACHN): > 100 µM (inactive) | GI50 (T47D): > 100 µM (inactive) | GI50 (OVCAR-5): > 100 µM (inactive) | GI50 (Hs-578T): > 100 µM (inactive) | GI50 (NCI-H226): > 100 µM (inactive) | GI50 (LOX IMVI): > 100 µM (inactive) | GI50 (MDA-MB-435): > 100 µM (inactive) | GI50 (SN12C): > 100 µM (inactive) | GI50 (Malme-3M): > 100 µM (inactive) | GI50 (SK-OV-3): > 100 µM (inactive) | GI50 (UACC-62): > 100 µM (inactive) | GI50 (HCT-116): > 100 µM (inactive) | GI50 (786-0): > 100 µM (inactive) | GI50 (SF-295): > 100 µM (inactive) | GI50 (CAKI-1): > 100 µM (inactive) | GI50 (HCC 2998): > 100 µM (inactive) | GI50 (MCF7): > 100 µM (inactive) | GI50 (K562): 19.1 µM (inactive) | GI50 (TK-10): > 100 µM (inactive) | GI50 (SNB-19): > 100 µM (inactive) | GI50 (RXF 393): > 100 µM (inactive) | GI50 (HL-60): 7.08 µM (inactive) | GI50 (A498): > 100 µM (inactive) | GI50 (EKVX): > 100 µM (inactive) | GI50 (RPMI-8226): > 100 µM (inactive) | GI50 (OVCAR-3): > 100 µM (inactive) | GI50 (DU-145): > 100 µM (inactive) | GI50 (HT-29): > 100 µM (inactive) | GI50 (SK-MEL-28): > 100 µM (inactive) | GI50 (U-251): > 100 µM (inactive) | GI50 (OVCAR-8): > 100 µM (inactive) | GI50 (KM12): > 100 µM (inactive) | GI50 (SW-620): > 100 µM (inactive) | GI50 (UO-31): > 100 µM (inactive) | GI50 (MOLT-4): 15 µM (inactive) | GI50 (HOP-92): 80.7 µM (inactive) | GI50 (SK-MEL-5): > 100 µM (inactive) | GI50 (HCT-15): > 100 µM | GI50 (M14): > 100 µM (inactive) | GI50 (A549): > 100 µM (inactive) | GI50 (MDA-N): > 100 µM (inactive) | GI50 (PC-3): > 100 µM (inactive) | GI50 (BT-549): > 100 µM (inactive)

O=C1C=CC2(O[C@H](c3ccccc3)[C@@H](c3ccccc3)O2)[C@H](Sc2ccccc2O)C1
GI50 (COLO 205): 0.499 µM (active) | GI50 (UACC-257): 0.658 µM (active) | GI50 (NCI/ADR-RES): 0.414 µM (active) | GI50 (NCI-H23): 0.708 µM (active) | GI50 (OVCAR-4): 1.08 µM (active) | GI50 (NCI-H460): 2.13 µM (inactive) | GI50 (MDA-MB-231): 0.839 µM (active) | GI50 (IGROV-1): 0.281 µM (active) | GI50 (CCRF-CEM): < 0.0156 µM (active) | GI50 (HOP-62): 1.85 µM (inactive) | GI50 (NCI-H522): 0.0532 µM (active) | GI50 (SNB-75): 3.28 µM (inactive) | GI50 (SF-268): 0.29 µM (active) | GI50 (ACHN): 0.351 µM (active) | GI50 (T47D): 0.785 µM (active) | GI50 (OVCAR-5): 2.35 µM (inactive) | GI50 (Hs-578T): 0.836 µM (active) | GI50 (SF-539): 0.757 µM (active) | GI50 (NCI-H226): 2.72 µM (inactive) | GI50 (LOX IMVI): 0.163 µM (active) | GI50 (MDA-MB-435): 0.309 µM (active) | GI50 (SN12C): 0.204 µM (active) | GI50 (Malme-3M): 0.294 µM (active) | GI50 (SK-OV-3): 3.27 µM (inactive) | GI50 (UACC-62): 0.841 µM (active) | GI50 (HCT-116): 0.122 µM (active) | GI50 (786-0): 0.15 µM (active) | GI50 (SF-295): 6.43 µM (inactive) | GI50 (CAKI-1): 0.34 µM (active) | GI50 (HCC 2998): 0.454 µM (active) | GI50 (MCF7): 0.27 µM (active) | GI50 (K562): 0.405 µM (active) | GI50 (TK-10): 0.29 µM (active) | GI50 (SK-MEL-2): 2.02 µM (inactive) | GI50 (SNB-19): 1.72 µM (inactive) | GI50 (RXF 393): 0.238 µM (active) | GI50 (HL-60): 0.264 µM (active) | GI50 (A498): 2.24 µM (inactive) | GI50 (EKVX): 1.43 µM (inactive) | GI50 (RPMI-8226): 0.0424 µM (active) | GI50 (OVCAR-3): 0.418 µM (active) | GI50 (DU-145): 1.22 µM (inactive) | GI50 (HT-29): 0.398 µM (active) | GI50 (SK-MEL-28): 1.36 µM (inactive) | GI50 (U-251): 0.498 µM (active) | GI50 (OVCAR-8): 0.105 µM (active) | GI50 (KM12): 1.98 µM (inactive) | GI50 (SW-620): 0.0824 µM (active) | GI50 (UO-31): 0.665 µM (active) | GI50 (MOLT-4): 0.0286 µM (active) | GI50 (HOP-92): 0.52 µM (active) | GI50 (SK-MEL-5): 0.993 µM (active) | GI50 (HCT-15): 0.221 µM | GI50 (M14): 0.233 µM (active) | GI50 (A549): 2.73 µM (inactive) | GI50 (MDA-N): 0.316 µM (active) | GI50 (PC-3): 0.7 µM (active) | GI50 (BT-549): 0.502 µM (active)

— ChEMBL document CHEMBL1201862, “PubChem BioAssay data set” (2004)
